Data: US8563562B2, “Compounds having antiviral properties” (priority 2008, dated 2013)

Columns and labels:
Assay type in all cases: cell-based
[1] = tested on: HIV-1 reporter virus, wild-type (WT) integrase; assay: Luciferase reporter virus infectivity assay in 293T cells; settings: Human immunodeficiency virus 1, HEK-293T, 48 h, read-out: Luciferase assay EC50, WT
Excerpt: (§1) Infectivity assays using reporter viruses derived from lentiviral vectors capable of a single round of infection were used to determine the activity (EC50) of compounds. The DNA used to generate viruses for infection was the full-length HIV-1 genome which had been envelope-deleted. In addition, a reporter gene (the firefly luciferase gene from Photinus pyralis) was cloned into the nef region of the HIV backbone for ease of assay readout. […]. Culture supernatants containing VSV-G pseudotyped virions were harvested 64 h post transfection, clarified by centrifugation to remove cell debris, and frozen at −70° C. until use.
(§2) HIV integrase was mutated within a shuttle vector (pGEM) containing the majority of the HIV-1 gag and pol sequence using site-directed mutagenesis to generate sequences that are known to confer resistance to published integrase inhibitors. These include but are not limited to mutations such as Q148H/G140S (in table #QHGS), N155H/E92Q (in table #NHEQ), F121Y/T124K (in table FYTK), Y143R (in table #Y143R) and the triple mutant Q148K/G140A/E138A. (in table#QKGAEA). The mutated integrase coding region within the shuttle vector was sequence verified, and then exchanged for the wild-type (WT) coding sequence in the reporter virus DNA backbone.
(§3) 293T cells were plated out at 12000 cells per well in CellView 96-well cell culture plates (Invitrogen) 16 h prior to compound addition. Compounds were preincubated with cells for 4 h at 37° C. prior to the addition of virus sufficient to generate approximately 10000 Luciferase light units (as measured by the Victor Wallace luminometer) upon assaying using the Bright-Glo™ reagent (Promega) according to the manufacturer's instructions at 48 h post infection.

[2] = tested on: HIV-1 reporter virus, N155H/E92Q (NHEQ) integrase; assay: as above; settings: Human immunodeficiency virus 1, HEK-293T, 48 h, read-out: Luciferase assay EC50, NHEQ
Excerpt: as §1, §2, §3

[3] = tested on: HIV-1 reporter virus, F121Y/T124K (FYTK) integrase; assay: as above; settings: Human immunodeficiency virus 1, HEK-293T, 48 h, read-out: Luciferase assay EC50, FYTK
Excerpt: as §1, §2, §3

[4] = tested on: HIV-1 reporter virus, Q148K/G140A/E138A (QKGAEA) integrase; assay: as above; settings: Human immunodeficiency virus 1, HEK-293T, 48 h, read-out: Luciferase assay EC50, QKGAEA
Excerpt: as §1, §2, §3

[5] = tested on: HIV-1 reporter virus, Y143R integrase; assay: as above; settings: Human immunodeficiency virus 1, HEK-293T, 48 h, read-out: Luciferase assay EC50, Y143R
Excerpt: as §1, §2, §3

[6] = tested on: HIV-1 reporter virus, Q148H/G140S (QHGS) integrase; assay: as above; settings: Human immunodeficiency virus 1, HEK-293T, 48 h, read-out: Luciferase assay EC50, QHGS
Excerpt: as §1, §2, §3

[7] = tested on: HIV variant T125K/F121Y integrase; assay: PhenoScreen (Phenosense) assay, single-round luciferase pseudotyped HIV; settings: for EC50: Human immunodeficiency virus 1, read-out: Activity, Phenosense assay, T125K F121Y
Excerpt: (§4) Monogram Bioscience' PhenoScreen assay allows the evaluation of integrase inhibitors for activity against a variety of HIV variants. The assay uses virus generated from 2 DNA constructs; one containing the HIV LTR, gag and pol regions, as well as a luciferase reporter gene in place of the viral envelope genes, and a second DNA construct containing the amphotrophic murine leukemia virus (A-MLV) envelope gene required to pseudotype virions and render them capable of entry into a target cell. Viruses generated using these constructs by transfection into a producer cell line such as 293T are capable of one-round of infection only. Successful integration events are directly proportional to the levels of luciferase expression 48 h after infection.
(§5) The viral variants chosen by the present inventors to screen integration inhibitors consist of mutations within the viral integrase enzyme known to confer resistance to a number of known integration inhibitors published in the literature. In particular, the viral variants containing the Q148H/G140S double mutation in integrase, and the N155H/E92Q double mutation in integrase, represent two of the more common viruses identified to arise in patients that are failing treatment with Isentress (Raltegravir, MK-0518).

[8] = tested on: HIV variant T661/S153Y integrase; assay: as above; settings: Human immunodeficiency virus 1, read-out: Activity, Phenosense assay, T661 S153Y
Excerpt: as §4, §5

[9] = tested on: HIV variant G140S/Q148H integrase; assay: as above; settings: Human immunodeficiency virus 1, read-out: Activity, Phenosense assay, G140S Q148H
Excerpt: as §4, §5

[10] = tested on: HIV variant E92Q/N155H integrase; assay: as above; settings: for EC50: Human immunodeficiency virus 1, read-out: Activity, Phenosense assay, E92Q/N155H
Excerpt: as §4, §5

HIV WT integrase = assay: as above; settings: Human immunodeficiency virus 1, read-out: Activity, Phenosense assay, WT
Excerpt: as §4, §5

[11] = tested on: HIV variant Y143R integrase; assay: as above; settings: for EC50: Human immunodeficiency virus 1, read-out: Activity, Phenosense assay, Y143R
Excerpt: as §4, §5

CN1CCN(c2cc(N3CCOCC3)cn3c(=O)c(O)c(-c4ncc(Cc5ccc(F)cc5)s4)nc23)C1=O [Example 101, 2-[5-(4-Fluoro-benzyl)-thiazol-2-yl]-3-hydroxy-9-(3-methyl-2-oxo-imidazolidin-1-yl)-7-morpholin-4-yl-pyrido[1,2-a]pyrimidin-4-one]
EC50 [1]: 1 to 100 nM | EC50 [2]: 1 to 100 nM | EC50 [3]: 1 to 100 nM | EC50 [4]: 100 to 1000 nM | EC50 [5]: 1 to 100 nM | EC50 [6]: 1 to 100 nM

CN1CCN(c2cc(N3CCOCC3)cn3c(=O)c(O)c(-c4ncc(Cc5ccc(F)cc5)s4)nc23)S1(=O)=O [Example 99, 2-[5-(4-Fluoro-benzyl)-thiazol-2-yl]-3-hydroxy-9-(5-methyl-1,1-dioxo-1l6-[1,2,5]thiadiazolidin-2-yl)-7-morpholin-4-yl-pyrido[1,2-a]pyrimidin-4-one]
EC50 [1]: 1 to 100 nM | EC50 [2]: 1 to 100 nM | EC50 [3]: 1 to 100 nM | EC50 [4]: 100 to 1000 nM | EC50 [5]: 1 to 100 nM | EC50 [6]: 1 to 100 nM

O=c1c(O)c(-c2ncc(Cc3ccc(F)cc3)o2)nc2c(I)cc(N3CCOCC3)cn12 [Example 4, 2-[5-(4-fluoro-benzyl)-oxazol-2-yl]-3-hydroxy-9-iodo-7-morpholin-4-yl-pyrido[1,2-a]pyrimidin-4-one]
EC50 [7]: 1 to 100 nM | improvement in activity over comparative example 3, T125K F121Y ([7]; footnote a, T125K/F121Y mutant): a 2.5-fold improvement in activity over comparative example 3 | EC50 [8]: 1 to 100 nM | EC50 [9]: > 10000 nM | EC50 [10]: 1 to 100 nM | improvement in activity over comparative example 3, E92Q/N155H ([10]; footnote b, E92Q/N155H mutant): b 2-fold improvement in activity over comparative example 3 | EC50 (HIV WT integrase): 1 to 100 nM | EC50 [11]: 1 to 100 nM | improvement in activity over comparative example 3, Y143R ([11]; footnote a, Y143R mutant): a 2.5-fold improvement in activity over comparative example 3

O=c1c(O)c(-c2ncc(Cc3ccc(F)cc3)s2)nc2ccc(N3CCOCC3)cn12 [Example 41, 2-[5-(4-Fluoro-benzyl)-thiazol-2-yl]-3-hydroxy-7-morpholin-4-yl-pyrido[1,2-a]pyrimidin-4-one]
EC50 [1]: 1 to 100 nM | EC50 [2]: 1 to 100 nM | EC50 [4]: > 1000 nM | EC50 [6]: > 1000 nM | EC50 [7]: 1 to 100 nM | EC50 [8]: 1 to 100 nM | EC50 [9]: 100 to 1000 nM | EC50 [10]: 100 to 1000 nM | EC50 (HIV WT integrase): 1 to 100 nM | EC50 [11]: 1 to 100 nM

O=c1c(O)c(-c2ncc(Cc3ccc(Cl)c(Cl)c3)s2)nc2ccc(N3CCOCC3)cn12 [Example 42, 2-[5-(3,4-Dichloro-benzyl)-thiazol-2-yl]-3-hydroxy-7-morpholin-4-yl-pyrido[1,2-a]pyrimidin-4-one]
EC50 [7]: 100 to 1000 nM | EC50 [8]: 100 to 1000 nM | EC50 [9]: 1000 to 10000 nM | EC50 [10]: 100 to 1000 nM | EC50 (HIV WT integrase): 100 to 1000 nM | EC50 [11]: 100 to 1000 nM

O=C(NCc1ccc(F)cc1)c1nc2c(I)cc(N3CCOCC3)cn2c(=O)c1O [Comparative example 3, reference compound]
EC50 [7]: 1 to 100 nM | EC50 [8]: 1 to 100 nM | EC50 [9]: > 10000 nM | EC50 [10]: 1 to 100 nM | EC50 (HIV WT integrase): 1 to 100 nM | EC50 [11]: 1 to 100 nM

O=c1c(O)c(-c2ncc(Cc3ccc(F)cc3)s2)nc2c(N3CCCS3(=O)=O)cc(N3CCOCC3)cn12 [Example 105, 9-(1,1-Dioxo-1l6-isothiazolidin-2-yl)-2-[5-(4-fluoro-benzyl)-thiazol-2-yl]-3-hydroxy-7-morpholin-4-yl-pyrido[1,2-a]pyrimidin-4-one]
EC50 [1]: 1 to 100 nM | EC50 [2]: 1 to 100 nM | EC50 [3]: 1 to 100 nM | EC50 [4]: 100 to 1000 nM | EC50 [5]: 1 to 100 nM | EC50 [6]: 100 to 1000 nM

O=C1OCCN1c1cc(N2CCOCC2)cn2c(=O)c(O)c(-c3ncc(Cc4ccc(F)cc4)s3)nc12 [Example 103, 2-[5-(4-Fluoro-benzyl)-thiazol-2-yl]-3-hydroxy-7-morpholin-4-yl-9-(2-oxo-oxazolidin-3-yl)-pyrido[1,2-a]pyrimidin-4-one]
EC50 [1]: 1 to 100 nM | EC50 [2]: 1 to 100 nM | EC50 [3]: 1 to 100 nM | EC50 [4]: 100 to 1000 nM | EC50 [5]: 1 to 100 nM | EC50 [6]: 1 to 100 nM

O=c1c(O)c(-c2ncc(Cc3ccc(F)cc3)[nH]2)nc2ccc(N3CCOCC3)cn12 [Example 45, 5-(4-Fluoro-benzyl)-2-(3-hydroxy-7-morpholin-4-yl-4-oxo-4H-pyrido[1,2-a]pyrimidin-2-yl)-1H-imidazol-1-ium chloride]
EC50 [1]: 1 to 100 nM | EC50 [2]: 100 to 1000 nM | EC50 [3]: 100 to 1000 nM | EC50 [4]: 100 to 1000 nM | EC50 [5]: 100 to 1000 nM | EC50 [6]: 100 to 1000 nM
